Data taken from PubChem BioAssay (NCI).
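Growth conditions: 96-well plates. Treatment: test compound, 48 hours, 5 concentrations. Analysis: linear interpolation between bracketing concentrations; unreached endpoints set to highest concentration. TGI marks complete inhibition of growth.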

Assays:
Assay in all cases: NCI-60 cell line screen, 48 h
[1] = system: OVCAR-3 ovarian
[2] = system: 786-0 renal
[3] = system: MDA-MB-231 breast
[4] = system: HOP-62 NSCLC
[5] = system: SF-539 CNS
[6] = system: COLO 205 colon
[7] = system: T-47D breast
[8] = system: NCI-H23 lung
[9] = system: SR leukemia
[10] = system: OVCAR-4 ovarian
[11] = system: HS 578T breast
[12] = system: SF-268 CNS
[13] = system: EKVX NSCLC
[14] = system: A498 renal
[15] = system: OVCAR-5 ovarian
[16] = system: NCI/ADR-RES ovarian
[17] = system: MDA-MB-435
[18] = system: HCT-116 colon
[19] = system: SF-295 CNS
[20] = system: HL-60(TB) leukemia
[21] = system: SW-620 colon
[22] = system: M14 melanoma
[23] = system: NCI-H460 lung
[24] = system: LOX IMVI melanoma
[25] = system: RXF 393 renal
[26] = system: NCI-H226 lung
[27] = system: SNB-75 CNS
[28] = system: HCC-2998 colon
[29] = system: UACC-257 melanoma
[30] = system: SNB-19 CNS
[31] = system: NCI-H522 lung
[32] = system: SK-MEL-2 melanoma
[33] = system: MALME-3M melanoma
[34] = system: KM12 colon
[35] = system: HOP-92 NSCLC
[36] = system: CAKI-1 renal
[37] = system: DU-145 prostate
[38] = system: SK-MEL-28 melanoma
[39] = system: MDA-N
[40] = system: IGROV1 ovarian
[41] = system: CCRF-CEM leukemia
[42] = system: BT-549 breast
[43] = system: SN12C renal
[44] = system: A549 NSCLC
[45] = system: UO-31 renal
[46] = system: HT29 colon
[47] = system: TK-10 renal
[48] = system: PC-3 prostate
[49] = system: SK-MEL-5 melanoma
[50] = system: OVCAR-8 ovarian
[51] = system: K-562 leukemia
[52] = system: U251 CNS
[53] = system: MOLT-4 leukemia
[54] = system: HCT-15 colon
[55] = system: SK-OV-3 ovarian
[56] = system: MCF7 breast
[57] = system: UACC-62 melanoma
[58] = system: RPMI-8226 leukemia
[59] = system: ACHN renal

For `N=[N+]=NC1C(O)C(CO)OC1n1cnc2c(N)ncnc21` (stereo not drawn), the TGI [1] was > 100 µM, the TGI [2] was > 100 µM and the TGI [3] was > 100 µM. For the same compound, the TGI [4] was > 100 µM, the TGI [5] was > 76.2 µM and the TGI [6] was > 100 µM. For the same compound, the TGI [7] was > 100 µM, the TGI [8] was > 80 µM and the TGI [9] was 7 µM. For the same compound, the TGI [10] was > 100 µM, the TGI [11] was > 100 µM and the TGI [12] was > 100 µM. The TGI [13] was > 100 µM, the TGI [14] was > 100 µM and the TGI [15] was > 100 µM. For the same compound, the TGI [16] was > 100 µM, the TGI [17] was > 100 µM and the TGI [18] was > 100 µM. The TGI [19] was > 100 µM, the TGI [20] was 6.44 µM and the TGI [21] was > 100 µM. The TGI [22] was > 100 µM, the TGI [23] was > 100 µM and the TGI [24] was > 83.5 µM. The TGI [25] was > 100 µM, the TGI [26] was 97.4 µM and the TGI [27] was > 100 µM. The TGI [28] was > 100 µM, the TGI [29] was > 100 µM and the TGI [30] was > 100 µM. For the same compound, the TGI [31] was > 100 µM, the TGI [32] was > 100 µM and the TGI [33] was > 100 µM. For the same compound, the TGI [34] was > 100 µM, the TGI [35] was > 100 µM and the TGI [36] was > 100 µM. For the same compound, the TGI [37] was > 100 µM, the TGI [38] was > 100 µM and the TGI [39] was > 100 µM. The TGI [40] was > 100 µM, the TGI [41] was > 29.8 µM and the TGI [42] was > 100 µM. The TGI [43] was > 100 µM, the TGI [44] was > 100 µM and the TGI [45] was > 100 µM. The TGI [46] was > 100 µM, the TGI [47] was > 100 µM and the TGI [48] was > 100 µM. For the same compound, the TGI [49] was > 100 µM, the TGI [50] was > 100 µM and the TGI [51] was > 100 µM. The TGI [52] was > 100 µM, the TGI [53] was > 22.4 µM and the TGI [54] was > 100 µM. The TGI [55] was > 100 µM, the TGI [56] was > 100 µM and the TGI [57] was > 100 µM. The TGI [58] was > 100 µM and the TGI [59] was 52.6 µM.
With `O=C(c1c2c(cc3c1CC1(Cc4cc5c(cc4C1)CCCC5)C3)CCCC2)C(Br)Br` the TGI [1] was 38.9 µM, the TGI [2] was 29.1 µM and the TGI [3] was 38.2 µM. For the same compound, the TGI [4] was > 81.7 µM, the TGI [5] was 38.3 µM and the TGI [6] was 32.7 µM. For the same compound, the TGI [7] was 27.9 µM, the TGI [8] was 36.5 µM and the TGI [9] was 8.05 µM. For the same compound, the TGI [10] was 41.6 µM, the TGI [11] was > 70.2 µM and the TGI [12] was 41.7 µM. The TGI [13] was > 59.8 µM, the TGI [14] was 86.6 µM and the TGI [15] was > 66.7 µM. For the same compound, the TGI [16] was 50.7 µM, the TGI [17] was 28.7 µM and the TGI [18] was 29.1 µM. The TGI [19] was > 100 µM, the TGI [20] was > 39.1 µM and the TGI [21] was 20.5 µM. The TGI [22] was 15.7 µM, the TGI [23] was > 100 µM and the TGI [24] was 3.42 µM. For the same compound, the TGI [25] was 28.7 µM, the TGI [26] was 14.3 µM and the TGI [27] was 31.7 µM. For the same compound, the TGI [28] was 54.3 µM, the TGI [29] was 41.9 µM and the TGI [30] was > 55.1 µM. It also gave a TGI [31] of 3.18 µM, a TGI [32] of 39.6 µM and a TGI [33] of 10.7 µM. For the same compound, the TGI [34] was 56.3 µM, the TGI [35] was 31.9 µM and the TGI [36] was 24.2 µM. The TGI [37] was > 100 µM, the TGI [38] was 30.7 µM and the TGI [39] was 29 µM. It also gave a TGI [40] of 27.1 µM, a TGI [41] of 5.14 µM and a TGI [42] of 21.6 µM. For the same compound, the TGI [43] was 44.9 µM, the TGI [44] was > 100 µM and the TGI [45] was 26.8 µM. The TGI [46] was 44.5 µM, the TGI [47] was 30.9 µM and the TGI [48] was 26.9 µM. It also gave a TGI [49] of 14.4 µM, a TGI [50] of 50.4 µM and a TGI [51] of 18 µM. The TGI [52] was 30.3 µM, the TGI [53] was 6.33 µM and the TGI [54] was 33 µM. For the same compound, the TGI [55] was 96.9 µM, the TGI [56] was 20.2 µM and the TGI [57] was 34.3 µM. The TGI [58] was > 61.9 µM and the TGI [59] was 27 µM.
